Measurements from article PMC7203344, “Sirtuin 1 Inhibiting Thiocyanates (S1th)—A New Class of Isotype Selective Inhibitors of NAD^+ Dependent Lysine Deacetylases” (Frontiers in Oncology, 2020).

Tests used:
deubiquitinases (DUBs) = experiment: DUB labeling on HEK293T cell lysate with Rhodamine-Ub-PA probe; type: biochemical, human; design: key to Qualitative pan-DUB inhibition @ 10 μM / Qualitative pan-DUB inhibition @ 50 μM: n.i.: no inhibition (<10%); +: low inhibition; +++: full inhibition; conditions: for Qualitative pan-DUB inhibition @ 10 μM / Qualitative pan-DUB inhibition @ 50 μM: HEK293T cell lysate
Protocol: Pan-inhibition of deubiquitinases (DUBs) was tested using HEK293T cell lysate (human embryonic kidney cells, human). Cells were harvested and resuspended in HR buffer (50 mM Tris, 5 mM MgCl2, 250 mM sucrose, 1 mM DTT, pH 7.4). Cell lysis was achieved by sonication (Bioruptor, Diagenode, high intensity for 10 min with an ON/OFF cycle of 30 s) at 4°C and the cell debris was removed by centrifugation at 13,500 rpm for 15 min. Cell lysate protein concentration was determined with a NanoDrop spectrophotometer (NanoDrop One™ Spektrophotometer, Thermo Fisher, MA, USA) by measuring absorbance at 280 nm. Nineteen microliter of the lysate (2 μg/μL) were incubated with inhibitors dissolved in DMSO at various concentrations or DMSO as a control for 30 min at 37°C. Afterwards 1 μL of Rhodamine-Ub-PA (1 μM final assay concentration) was added to each sample, followed by further incubation for 40 min at 37°C ([61]). The labeling reaction was stopped by addition of NuPAGE 4× LDS sample buffer (Invitrogen Life Technologies, Carlsbad, CA, USA) containing β-mercaptoethanol and boiling for 7 min at 95°C. The proteins of the samples as well as protein marker (PageRuler™ Pre-stained Protein Ladder, 10–250 kDa, Thermo Fisher, MA, USA) were resolved by a 4–12% SDS-PAGE using the NuPAGE system with MOPS running buffer (Invitrogen Life Technologies, Carlsbad, CA, USA). The resulting gel was scanned with a Typhoon imager (GE Healthcare Life Sciences, USA) to visualize the Rhodamine-Ub-PA probe and Cy5 (marker). Subsequently the gel was stained with InstantBlue™ Protein Stain (Expedeon, UK) and scanned on a Amersham scanner (Amersham Typhoon gel and blot imaging system, GE Healthcare Life Sciences, USA).

[1] = Solubility as found in testing; type: physicochemical; conditions: compared with earlier hits such as S1th 7
HDAC6 = target: T1, HDAC6 (Homo sapiens, UniProt Q9UBN7); experiment: Homogeneous ZMAL-based fluorescence assay for HDAC6; type: biochemical
T1 sequence (Q9UBN7 1-1215): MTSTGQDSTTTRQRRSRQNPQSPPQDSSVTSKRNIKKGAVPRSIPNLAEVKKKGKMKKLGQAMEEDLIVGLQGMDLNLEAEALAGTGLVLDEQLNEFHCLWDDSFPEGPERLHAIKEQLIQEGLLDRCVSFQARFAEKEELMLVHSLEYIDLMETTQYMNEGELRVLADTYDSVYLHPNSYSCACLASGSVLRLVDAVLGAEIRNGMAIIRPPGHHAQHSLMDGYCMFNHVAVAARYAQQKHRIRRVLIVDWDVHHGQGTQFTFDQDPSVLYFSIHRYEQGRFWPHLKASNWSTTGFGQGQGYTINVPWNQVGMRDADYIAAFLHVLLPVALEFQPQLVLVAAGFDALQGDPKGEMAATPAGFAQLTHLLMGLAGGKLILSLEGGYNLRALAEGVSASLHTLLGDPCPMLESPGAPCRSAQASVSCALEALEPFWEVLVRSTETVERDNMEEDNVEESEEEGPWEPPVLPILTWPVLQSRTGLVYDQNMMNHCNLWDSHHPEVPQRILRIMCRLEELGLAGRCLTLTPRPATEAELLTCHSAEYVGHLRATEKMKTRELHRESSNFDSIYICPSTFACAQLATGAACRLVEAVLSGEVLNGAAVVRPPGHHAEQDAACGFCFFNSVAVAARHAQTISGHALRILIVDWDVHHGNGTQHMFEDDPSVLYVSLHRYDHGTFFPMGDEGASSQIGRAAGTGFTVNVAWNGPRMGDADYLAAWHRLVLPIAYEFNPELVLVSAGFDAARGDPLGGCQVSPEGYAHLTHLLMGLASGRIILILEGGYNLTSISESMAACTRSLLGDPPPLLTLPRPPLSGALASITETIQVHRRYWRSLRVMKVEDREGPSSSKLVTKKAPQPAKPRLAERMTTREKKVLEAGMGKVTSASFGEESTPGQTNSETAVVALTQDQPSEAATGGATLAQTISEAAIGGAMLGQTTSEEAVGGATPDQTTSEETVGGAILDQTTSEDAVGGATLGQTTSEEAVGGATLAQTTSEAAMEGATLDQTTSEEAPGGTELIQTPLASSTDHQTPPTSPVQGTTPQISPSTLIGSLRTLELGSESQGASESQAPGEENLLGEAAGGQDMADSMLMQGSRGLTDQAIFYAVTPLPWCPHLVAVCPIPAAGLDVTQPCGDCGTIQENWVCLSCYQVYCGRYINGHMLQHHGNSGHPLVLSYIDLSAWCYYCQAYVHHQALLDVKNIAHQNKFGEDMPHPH
Protocol: The inhibition of HDAC1 and 6 by the S1th and PR-619 was determined via the ZMAL-assay according to the same general procedure described for sirtuins (2.2.1). 5 μL substrate (10.5 μM final assay concentration) were mixed with 3 μL of inhibitor in DMSO or DMSO and 10 μL of HDAC solution (concentration adjusted to 15–30% conversion) and filled up to 60 μL with assay buffer (50 mM Tris, 137 mM NaCl, 1 mM MgCl2, 2,7 mM KCl, 1 mg/ml BSA, pH = 8.0). The mixture was incubated at 37°C and 140 rpm for 1.5 h. For the stop solution Trichostatin A (3.3 μM) was used instead of nicotinamide. Fluorescence intensity was measured as described above. An enzyme free blank control and an AMC containing 100% control were performed as well and inhibition was calculated in % in relation to a DMSO control.

HeLa cells = experiment: Colony forming assay with HeLa cells; type: cell-based, human; conditions: 7–10 days; concentrations as in proliferation assay
Protocol: (§1) For colony assays, 50 cells per well were seeded in 6-well plates and grown in the same conditions with the same drug concentrations as for the proliferation assays. In this case, the growth media containing the drugs was replaced every 48 h. After 7–10 days, when isolated colonies were formed, wells were washed with PBS, and cells were fixed with cold methanol for 5 min at RT. Cells were stained with crystal violet for 10 min at RT and washed with H2O. Images were acquired using iBright (Thermo Fisher Scientific, MA, USA). For quantification, cells of each well were resuspended in 10% glacial acetic acid to dissolve crystal violet whose levels were monitored by measuring absorbance at 590 nm. The experiment was performed in duplicates.

MCF7 cells = experiment: Colony forming assay with MCF7 cells; type: cell-based, human; conditions: concentrations as for HeLa
Protocol: as §1

Structure (SMILES)	solubility (in words) [1]	% inhibition @ 100 μM HDAC6 (HDAC6)	inhibition at 100 µM (HDAC6)	Qualitative pan-DUB inhibition @ 10 μM (deubiquitinases (DUBs))	Qualitative pan-DUB inhibition @ 50 μM (deubiquitinases (DUBs))	colony forming of HeLa cells (HeLa cells)	colony forming capabilities of MCF7 cells (MCF7 cells)	inhibition of DUBs (in words) (deubiquitinases (DUBs); HEK cell lysate, Rhodamine-Ub-PA probe)	residual activity HDAC6 (HDAC6)
N#CSc1cccc(NS(=O)(=O)c2ccc3c(c2)OCCO3)c1 [S1th 13]	better soluble	19%	29%	n.i. (no inhibition (<10%))	n.i. (no inhibition (<10%))	almost as potent as EX-527	significantly decreased		
N#CSc1cc(SC#N)c(N)nc1N [PR-619, reference compound]			49%	+	+++			inhibits all DUBs tested in a concentration dependent manner	~ 50%
COc1ccc(SC#N)cc1OCC(=O)N(CCC#N)CCC#N [S1th 12]	better soluble		36%	n.i. (no inhibition (<10%))	n.i. (no inhibition (<10%))	only mild effects	barely affected		

Second part, led by results:

solubility (in words) [1]	% inhibition @ 100 μM HDAC6 (HDAC6)	inhibition at 100 µM (HDAC6)	Structure (SMILES)	Qualitative pan-DUB inhibition @ 10 μM (deubiquitinases (DUBs))	Qualitative pan-DUB inhibition @ 50 μM (deubiquitinases (DUBs))	colony forming of HeLa cells (HeLa cells)	colony forming capabilities of MCF7 cells (MCF7 cells)	inhibition of DUBs (in words) (deubiquitinases (DUBs); HEK cell lysate, Rhodamine-Ub-PA probe)	residual activity HDAC6 (HDAC6)
better soluble		< 10%	CCCCNC(=O)Nc1cccc(SC#N)c1 [S1th 11]	n.i. (no inhibition (<10%))	n.i. (no inhibition (<10%))				
	29%	19%	N#CSc1cccc(NC(=O)[C@H]2CC=CC[C@H]2C(=O)O)c1 [S1th 10]	n.i. (no inhibition (<10%))	n.i. (no inhibition (<10%))	only mild effects	slightly decreased		
